In ChEMBL document CHEMBL1156642, “Discovery of betamethasone 17alpha-carbamates as dissociated glucocorticoid receptor modulators in the rat” (Bioorg Med Chem, 2008):

What was measured:
Format in all cases: functional
[1] = system: Rattus norvegicus; assay: Effect on body weight change in Lewis rat with implanted cotton pellets at 1.0 mg/kg, po bid for 7 days
[2] = system: Rattus norvegicus; assay: Effect on adrenal weight in Lewis rat with implanted cotton pellets at 1.0 mg/kg, po bid
[3] = system: Rattus norvegicus; assay: Effect on body weight change in Lewis rat with implanted cotton pellets at 2.5 mg/kg, po bid for 4 days
[4] = system: Rattus norvegicus; assay: Effect on thymus weight in Lewis rat with implanted cotton pellets at 2.5 mg/kg, po bid
[5] = system: Rattus norvegicus; assay: Effect on thymus weight in Lewis rat with implanted cotton pellets at 1.0 mg/kg, po bid
[6] = system: Rattus norvegicus; assay: Inhibition of granuloma formation in cotton pellet implanted Lewis rat at 1.0 mg/kg, po bid
[7] = system: Rattus norvegicus; assay: Effect on body weight change in Lewis rat with implanted cotton pellets at 2.5 mg/kg, po bid for 7 days
[8] = system: Rattus norvegicus; assay: Inhibition of granuloma formation in cotton pellet implanted Lewis rat at 2.5 mg/kg, po bid
[9] = system: Rattus norvegicus; assay: Effect on body weight change in Lewis rat with implanted cotton pellets at 6.0 mg/kg, po bid for 7 days
[10] = system: Rattus norvegicus; assay: Effect on adrenal weight in Lewis rat with implanted cotton pellets at 6.0 mg/kg, po bid
[11] = system: Rattus norvegicus; assay: Effect on spleen weight in Lewis rat with implanted cotton pellets at 2.5 mg/kg, po bid
[12] = system: Rattus norvegicus; assay: Effect on adrenal weight in Lewis rat with implanted cotton pellets at 2.5 mg/kg, po bid
[13] = system: Rattus norvegicus; assay: Effect on thymus weight in Lewis rat with implanted cotton pellets at 6.0 mg/kg, po bid
[14] = system: Rattus norvegicus; assay: Effect on body weight change in Lewis rat with implanted cotton pellets at 1.0 mg/kg, po bid for 4 days
[15] = system: Rattus norvegicus; assay: Effect on spleen weight in Lewis rat with implanted cotton pellets at 6.0 mg/kg, po bid
[16] = species on record: Mus musculus; assay: Inhibition of LPS-induced TNFalpha production in mouse
[17] = system: Rattus norvegicus; assay: Inhibition of granuloma formation in cotton pellet implanted Lewis rat at 6.0 mg/kg, po bid
[18] = system: Rattus norvegicus; assay: Effect on body weight change in Lewis rat with implanted cotton pellets at 6.0 mg/kg, po bid for 4 days
[19] = system: Rattus norvegicus; assay: Effect on spleen weight in Lewis rat with implanted cotton pellets at 1.0 mg/kg, po bid

C[C@]12C=CC(=O)C=C1CC[C@@H]1[C@@H]2[C@@H](O)C[C@@]2(C)[C@H]1CC[C@]2(O)C(=O)CO [PREDNISOLONE]
Activity [1]: 3 g
Activity [2]: 38.7 mg
Activity [3]: -1 g
Activity [4]: 117.8 mg
Activity [5]: 219.5 mg
inhibition in vivo at 1 mg/kg [6]: 37.6%
Activity [7]: -0.4 g
inhibition in vivo at 2.5 mg/kg [8]: 49.3%
Activity [9]: -4.1 g
Activity [10]: 27.9 mg
Activity [11]: 266.8 mg
Activity [12]: 26.9 mg
Activity [13]: 104 mg
Activity [14]: 1.5 g
Activity [15]: 260 mg
ED50 [16]: 0.5 mg/kg
inhibition in vivo at 6 mg/kg [17]: 56.2%
Activity [18]: -3.6 g
Activity [19]: 334.7 mg
